Patent US8895579B2, “Heterotricyclic AMPA receptor antagonists for treatment of epilepsy, pain, and other neurological disorders and diseases” (Northwestern University, priority 2010, dated 2014)
Entries after “also recorded” stand apart in the source; their conditions may differ.

Columns and labels:
AMPA receptors = details: cited from earlier work; for concentration range inhibiting AMPA receptors: Bleakman et al., 1996
[1] = system: AMPA receptor-mediated EPSCs in primary hippocampal neurons; experiment: AMPA receptor EPSC charge transfer during spontaneous synaptic bursts, whole-cell voltage clamp, cultured hippocampal neurons; type: cell-based; details: 30 μM; for charge transfer during bursts of AMPA receptor-mediated synaptic events as a percent of the charge transfer during the control period: voltage clamped at −70 mV
Method: (§1) Experiments involving primary hippocampal neurons were carried out as described previously (Vivithanaporn et al., 2007). Dissociated neurons were cultured from E18 prenatal hippocampi and were used for analysis from between 17 and 28 days in vitro. The extracellular solution was the same as used for recombinant receptor analysis, while the internal solution for voltage clamp recordings contained (in mM) 95 CsF, 25 CsCl, 10 Cs-HEPES, 10 EGTA, 2 NaCl, 2 Mg-ATP, 10 QX-314, 5 TEA. and 5 4-AP (pH 7.3) and the internal solution for current clamp recordings contained (in mM) 120 KMeSO4, 5 KCl, 5 NaCl, 1 MgCl2, 11 Na-HEPES, 10 phosphocreatine, 4 Na-ATP, and 0.3 Na-GTP (pH 7.0). Borosilicate patch electrodes were pulled and fire polished to 3-5 MΩ resistance. Both whole cell current clamp and voltage clamp recordings were performed using an Axopatch 200B amplifier (MDS, Sunnyvale, Calif.) and filtered at 20 kHz. Gigaohm seals were established in voltage clamp mode and, after membrane rupture, the recordings were carried out either in voltage clamp (clamped at Vm=−70 mV) with a […] series resistance, which was compensated to ˜60%, or in current clamp mode ([…]) with the bridge balance was corrected and pipette resistance neutralized. In vitro status epilepticus (SE) was induced as described previously (Deshpande et al., 2007; Pal et al., 1999) and action potentials were recorded in current clamp mode. Briefly for in vitro SE, magnesium-containing external solution was exchanged for external solution without magnesium and supplemented with 2 μM glycine. This solution exchange produced a period of rapid depolarization and increased AP firing, followed by a period of channel inactivation and reduced AP firing. After channel inactivation, neurons characteristically would hyperpolarize to hold at a membrane voltage (Vm) which was depolarized relative to control Vm, with an increase in AP firing frequency. […] External solutions were bath-applied at a flow rate of 1.5-2 ml/minute. After recording a basal control period, IKM compounds were applied for five minutes (10 minutes for in vitro SE experiments) and changes in excitatory post-synaptic current (EPSC) charge transfer or action potential (AP) frequency were analyzed during the last two minutes of IKM application.
We first measured the actions of the IKM compounds on the charge transfer during spontaneously occurring, polysynaptic bursts of AMPA receptor excitatory post-synaptic currents (EPSCs) in cultured hippocampal neurons (recorded in the presence of bicuculline methiodide and picrotoxin to inhibit GABAA receptors and D-APV to inhibit NMDA receptors). […] IKM-159 had the greatest inhibitory effect at a fixed concentration of 30 μM, producing a reduction in charge transfer of 65±5% (n=6, p<0.01). […] Despite the polar chemical nature of the compounds, recoveries to basal EPSC charge transfers were minimal.

[2] = molecular target: T1, recombinant homomeric GluA4 AMPA receptor (Rattus norvegicus, UniProt P19493); experiment: Whole-cell patch clamp of recombinant GluA4 receptors in HEK293-T/17 cells; type: cell-based; details: for remaining activity at 30 µM: HEK293T/17, read-out: GluA4 peak current as percent of control amplitude; for inhibition at 30 µM: HEK293T/17, read-out: reduction from control GluA4 peak glutamate current amplitude (percent inhibition)
T1 construct: expressed in transfected cells; host or cells: HEK293-T/17 (CRL-11268)
Method: Cell Culture and Transfection. Human embryonic kidney cells expressing T-antigen, clone 17 (HEK293-T/17) (CRL-11268) were cultured at 37° C. with 5% CO2 in DMEM, including 100 μg/mL penicillin, 100 μg/mL streptomycin, and 10% heat-inactivated fetal bovine serum. Cells were split twice per week. For transfection, HEK293-T/17 cells were plated at 3×10^4 cells/cm^2 for pharmacology experiments and 5×10^3 cells/cm^2 for physiology experiments in fresh medium 24 h prior to transfection. Cells were transfected with AMPA or KA receptor plasmid cDNAs using Mirus Trans-IT transfection reagent (Minus Bio Corporation, Madison, Wis.) at a ratio of 1 μg cDNA: 3 μL Trans-1T reagent and maintained in transfection medium overnight followed by a media change the next day. Transfected cells were maintained in this medium until the experiment was conducted (48-72 h total post transfection).
Electrophysiology. For analysis of recombinant receptors, HEK293-T/17 cells were co-transfected with 0.2 μg of iGluR cDNA and 0.05 μg of eGFP. For heterologous GluA1/GluA2 receptors, the GluA1:GluA2 cDNA ratio was 1:6. Two to three days post-transfection, eGFP-expressing cells were lifted from the cover slip and voltage clamped in whole cell mode. The internal solution contained (in mM) 30 CsF, 110 CsCl, 10 HEPES, 4 NaCl, 5 EGTA and 0.5 CaCl2 (pH 7.3), while the extracellular solution contained (in mM) 140 NaCl, 10 glucose, 10 Cs-HEPES, 3 KCl, 2 CaCl2 and 1 MgCl2 (pH 7.3). Borosilicate patch electrodes were pulled and fire polished to 2-3 MO resistance. Lifted cells were maintained in a laminar stream of extracellular solution from a triple-barreled flow pipe, which was rapidly translated using a piezoceramic bimorph for fast application of glutamate or kainate alone or in combination with various antagonists (the 10-90% rise time of glutamate-evoked currents was ˜1 ms). IKM compounds were applied for three minutes with analysis performed on the final one minute of drug application.
Statistical analysis. At least three separate experiments were performed for each assay. For data involving three or more groups, a one-way analysis of variance (ANOVA) was performed with a Tukey-Kramer post hoc test for comparison amongst the groups. For data involving two groups, an unpaired student's t-test was performed; if the standard deviations between the two groups were statistically significant, a Welsh correction was added. If the data involving three or more groups or data involving two groups where multiple treatments were performed on the same sample, a repeated measures ANOVA and paired t-test were used, respectively, for analysis of significance. Dose-inhibition response curves were fitted, with the maximum value constrained to 100 and the minimum value constrained to values greater than or equal to zero, using the following equation in order to calculate the IC50 values: Response=minimum+(maximum−minimum)/(1+(IC50^hill slope/dose^hillslope)) All calculations for statistical analysis were carried out with Graphpad Prism4 software (La Jolla, Calif.). Data are presented as mean±S.E.M. with statistical significance set at p<0.05.

[3] = system: cultured hippocampal neurons; experiment: Whole-cell current elicited in cultured hippocampal neurons; type: cell-based; details: 30 μM; GABAA and NMDA receptor antagonists present
Method: Experiments involving primary hippocampal neurons were carried out as described previously (Vivithanaporn et al., 2007). Dissociated neurons were cultured from E18 prenatal hippocampi and were used for analysis from between 17 and 28 days in vitro. The extracellular solution was the same as used for recombinant receptor analysis, while the internal solution for voltage clamp recordings contained (in mM) 95 CsF, 25 CsCl, 10 Cs-HEPES, 10 EGTA, 2 NaCl, 2 Mg-ATP, 10 QX-314, 5 TEA. and 5 4-AP (pH 7.3) and the internal solution for current clamp recordings contained (in mM) 120 KMeSO4, 5 KCl, 5 NaCl, 1 MgCl2, 11 Na-HEPES, 10 phosphocreatine, 4 Na-ATP, and 0.3 Na-GTP (pH 7.0). Borosilicate patch electrodes were pulled and fire polished to 3-5 MΩ resistance. Both whole cell current clamp and voltage clamp recordings were performed using an Axopatch 200B amplifier (MDS, Sunnyvale, Calif.) and filtered at 20 kHz. […] In vitro status epilepticus (SE) was induced as described previously (Deshpande et al., 2007; Pal et al., 1999) and action potentials were recorded in current clamp mode. […] After recording a basal control period, IKM compounds were applied for five minutes (10 minutes for in vitro SE experiments) and changes in excitatory post-synaptic current (EPSC) charge transfer or action potential (AP) frequency were analyzed during the last two minutes of IKM application. […]

mice = details: Ikoma et al., 2008; Oikawa et al., 2009 and unpublished observations; cited from earlier work
[4] = system: primary hippocampal neurons; experiment: Spontaneous action potential firing, current clamp, cultured hippocampal neurons; type: cell-based; details: 20 μM
Method: as §1
Effects of IKM-159 on neuronal excitability. […] To determine if altered neuronal excitability could contribute to this behavioral phenotype, we examined the effect of IKM-86 and IKM-159 on action potential firing in cultured hippocampal neurons. Spontaneous action potentials were recorded in current-clamp mode before, during and after application of 20 μM IKM-86 and IKM-159. […]

[5] = system: primary hippocampal neurons; experiment: In vitro model of status epilepticus (Mg2+ removal, 2 μM glycine), action potential firing in hippocampal neurons; type: cell-based; details: 1 μM; SE 2.0±0.3 Hz
Method: as §1
Several AMPA receptor selective antagonists reduce neuronal hyperactivity in both acute brain slice preparations and in in vitro models of epilepsy (Grasso et al., 1999; Szabados et al., 2001). […] We therefore tested the efficacy of IKM-159 in reducing the hyperactive neuronal phenotype in dissociated hippocampal neurons using an in vitro model of status epilepticus (SE) (Deshpande et al., 2007; Pal et al., 1999). […]

T1 sequence (P19493 21-902 isoform P19493-2 limits assumed): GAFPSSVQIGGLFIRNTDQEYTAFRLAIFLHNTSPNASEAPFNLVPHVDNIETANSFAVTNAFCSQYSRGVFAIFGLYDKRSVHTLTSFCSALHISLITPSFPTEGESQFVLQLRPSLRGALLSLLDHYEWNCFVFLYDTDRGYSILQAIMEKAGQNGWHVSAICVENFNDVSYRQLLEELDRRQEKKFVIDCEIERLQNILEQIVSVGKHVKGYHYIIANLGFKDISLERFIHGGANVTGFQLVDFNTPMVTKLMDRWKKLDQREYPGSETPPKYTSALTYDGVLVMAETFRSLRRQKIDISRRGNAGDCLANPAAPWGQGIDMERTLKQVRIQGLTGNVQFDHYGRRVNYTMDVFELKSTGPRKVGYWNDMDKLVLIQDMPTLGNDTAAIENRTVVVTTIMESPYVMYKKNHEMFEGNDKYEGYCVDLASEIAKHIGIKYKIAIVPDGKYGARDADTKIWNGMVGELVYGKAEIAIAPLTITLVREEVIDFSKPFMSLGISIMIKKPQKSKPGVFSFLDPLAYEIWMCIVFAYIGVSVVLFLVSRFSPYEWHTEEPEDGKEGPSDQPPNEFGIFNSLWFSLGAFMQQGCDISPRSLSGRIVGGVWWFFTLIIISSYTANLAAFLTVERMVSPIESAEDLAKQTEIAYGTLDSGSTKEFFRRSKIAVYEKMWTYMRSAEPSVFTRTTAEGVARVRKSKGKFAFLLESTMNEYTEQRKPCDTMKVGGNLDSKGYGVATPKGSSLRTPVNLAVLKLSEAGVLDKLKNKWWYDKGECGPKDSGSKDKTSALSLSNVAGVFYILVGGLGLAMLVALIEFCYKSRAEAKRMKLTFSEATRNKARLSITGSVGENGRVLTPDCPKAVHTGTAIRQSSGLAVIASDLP

Row | SMILES | reduction from control charge transfer [1] [%] | charge transfer during bursts of AMPA receptor-mediated synaptic events as a percent of the charge transfer during the control period [1] [%] | remaining activity at 30 µM [2] [%] | inhibition at 30 µM [2] [%] | behavioral phenotype in mice (mice) | further results
1 | CNC(=O)N1N=C(c2ccc(N)cc2)c2cc3c(cc2CC1C)OCO3 (stereo not drawn) [GYKI 53655] | – | – | – | – | – | concentration range inhibiting AMPA receptors (AMPA receptors): low micromolar range
2 | O=C(O)C[C@@]12O[C@H]3CCCCO[C@H]3C1CN[C@H]2C(=O)O (stereo partly drawn) [IKM-98] | 11±14 | 89±14 | 88 ± 2 | 12 ± 2 | varying degrees of hyperactivity | whole-cell current elicited [3]: 380±160 pA
3 | O=C(O)C[C@@]12O[C@H]3CCCO[C@H]3C1CN[C@H]2C(=O)O (stereo partly drawn) [IKM-110] | 34±12 | 66±12 | 86 ± 2 | 14 ± 2 | varying degrees of hyperactivity | –
4 | O=C(O)C[C@@]12O[C@H]3[C@H](O)[C@H](O)CO[C@H]3C1CN[C@H]2C(=O)O (stereo partly drawn) [IKM-86] | 42±8 | 58±8 | 81 ± 2 | 19 ± 2 | hypoactive phenotypes similar to cataleptic states; also recorded: marked hypoactivity and immobility | persistence of reduction in action potential firing frequency after removal of compound [4]: prolonged; action potential firing frequency in presence of compound ([4]; basal (spontaneous) firing): 0.9±0.3 Hz
5 | O=C(O)C[C@@]12O[C@H]3C=CCN[C@H]3C1C(=O)N[C@H]2C(=O)O (stereo partly drawn) [IKM-27] | 31±9 | 70±9 | 80 ± 6 | 20 ± 6 | hypoactive phenotypes similar to cataleptic states | –
6 | O=C(O)C[C@@]12O[C@H]3[C@H](O)[C@H](O)CCO[C@H]3C1CN[C@H]2C(=O)O (stereo partly drawn) [IKM-107] | 39±12 | 62±12 | 95 ± 2 | 5 ± 2 | varying degrees of hyperactivity | whole-cell current elicited [3]: 47±11 pA
7 | CC1=NN=C(c2ccc(N)cc2)c2cc3c(cc2C1)OCO3 [GYKI 52466] | – | – | – | – | – | concentration range inhibiting AMPA receptors (AMPA receptors): low micromolar range
8 | Cc1cc(-c2ccc(/N=N/c3ccc4c(S(=O)(=O)[O-])cc(S(=O)(=O)[O-])c(N)c4c3O)c(C)c2)ccc1/N=N/c1ccc2c(S(=O)(=O)[O-])cc(S(=O)(=O)[O-])c(N)c2c1O.[Na+].[Na+].[Na+].[Na+] [EB] | – | – | – | – | – | IC50 (AMPA receptors; non-competitive antagonist, Keller et al., 1993, Weigand et al., 1998): high nanomolar-low micromolar range
9 | N#Cc1cc2c(cc1[N+](=O)[O-])=NC(=O)C(=O)N=2 [CNQX, 6-cyano-7-nitroquinoxaline-2,3-dione, reference compound] | – | – | – | – | – | AP firing frequency in SE condition with compound [5]: 1.2±0.4 Hz
